Measurements as given in US9040717B2, “Pyrazole-amide compounds and pharmaceutical use thereof” (JAPAN TOBACCO INC., priority 2013, dated 2015).

Legend:
[1] = system: adipose tissue PDH activity; assay: Ex vivo PDH activation assay, adipose tissue; format: in vivo, Sprague-Dawley rats; settings: non-fasting SD rats, vehicle 31 ± 10, mean ± S.D. (n = 3)
Description: (§1) The action of test compound on tissue PDH activity was evaluated. NADH production was detected via p-iodonitrotetrazolium violet (INT)-coupled system to measure PDH activity.
(§2) Normal male Sprague-Dawley rats were randomly allocated to the vehicle group and the test compound groups. The vehicle (0.5% aqueous methylcellulose solution, 5 mL/kg) or the test compound was orally administered to the rats. At 5 or 20 hr after administration, the rats were anesthetized with an intraperitoneal injection of sodium pentobarbital (60 mg/kg), and liver slices and epididymal adipose tissues were collected.
(§3) To the adipose tissues were rapidly added 3 volumes of an ice-cold homogenization buffer, and the mixtures were homogenized using a Polytron homogenizer. The homogenates were centrifuged at 600×g, 4° C. for 10 min to obtain the supernatant. The supernatants were centrifuged at 16,000×g, 4° C. for 10 min to collect the precipitates. The precipitates were washed by resuspension in the homogenization buffer (1 mL) and centrifuged in the same manner. The precipitates were frozen with liquid nitrogen and stored at −80° C. as the adipose tissue mitochondrial fraction.
(§4) The mitochondrial fractions were thawed and suspended with the sample buffer (0.25 mol/L sucrose, 20 mmol/L tris(hydroxymethyl)aminomethane hydrochloride (pH 7.5), 50 mmol/L potassium chloride, and 1 mL/L 4-(1,1,3,3-tetramethylbutyl)phenyl-polyethylene glycol (Triton X-100)). Active PDH activity (PDHa activity) and total PDH activity (PDHt activity) were measured to evaluate the PDH activity. For the measurement of the PDHt activity, equal amounts of the mitochondrial suspension and the activation buffer (0.25 mol/L sucrose, 20 mmol/L tris(hydroxymethyl)aminomethane hydrochloride (pH 7.5), 50 mmol/L potassium chloride, 1 mL/L Triton X-100, 4 mmol/L calcium chloride, 40 mmol/L magnesium chloride, 10 mmol/L sodium dichloroacetate) were mixed, and the mixtures were incubated at 37° C. for 10 min. Forty microliters of the mitochondrial suspensions diluted with a sample buffer were added to a 96-well microplate for activity measurement and blank measurement. Then 180 μL of the reaction mixture (0.056 mmol/L potassium phosphate buffer (pH 7.5), 5.6 mmol/L DL-carnitine, 2.8 mmol/L NAD, 0.22 mmol/L thiamin pyrophosphate, 0.11 mmol/L Coenzyme A, 1.1 mL/L Triton X-100, 1.1 mmol/L magnesium chloride, 1.1 g/L bovine serum albumin, 0.67 mmol/L INT, 7.2 μmol/L phenazine methosulfate, 28 mmol/L sodium oxamate) was added to each well, and then 20 μL of 50 mmol/L sodium pyruvate for activity measurement or water for blank measurement were added. The mixtures were incubated at room temperature under shading. The absorbances at 500-750 nm, which were attributable to reduction of INT, the final electron acceptor, were measured using a microplate reader over time and the changes in the absorbance were calculated. The PDH activity was calculated by subtraction of the change in absorbance of the blank well from that of the activity measurement well. The percentage of the PDHa activity to the PDHt activity was calculated and taken as an index of the PDH activation.

liver PDH activity = assay: Ex vivo PDH activation assay, liver; format: in vivo, Sprague-Dawley rats; settings: non-fasting SD rats, vehicle 13 ± 3, mean ± S.D. (n = 3)
Description: as §1, §2
as §3, with “liver slices” for “adipose tissues”, “9” for “3”, “of” for “of an”, “buffer (0.25 mol/L sucrose, 5 mmol/L tris(hydroxymethyl)aminomethane hydrochloride (pH 7.5), 2 mmol/L EDTA),” for “buffer,”, “supernatants (1 mL)” for “supernatants”, “liver” for “adipose tissue”
as §4

[2] = target: hERG current in hERG-transfected HEK293 cells (Homo sapiens (Human), UniProt Q12809); assay: hERG whole cell patch clamp test; format: cell-based
Chain of hERG current in hERG-transfected HEK293 cells (Q12809 whole entry): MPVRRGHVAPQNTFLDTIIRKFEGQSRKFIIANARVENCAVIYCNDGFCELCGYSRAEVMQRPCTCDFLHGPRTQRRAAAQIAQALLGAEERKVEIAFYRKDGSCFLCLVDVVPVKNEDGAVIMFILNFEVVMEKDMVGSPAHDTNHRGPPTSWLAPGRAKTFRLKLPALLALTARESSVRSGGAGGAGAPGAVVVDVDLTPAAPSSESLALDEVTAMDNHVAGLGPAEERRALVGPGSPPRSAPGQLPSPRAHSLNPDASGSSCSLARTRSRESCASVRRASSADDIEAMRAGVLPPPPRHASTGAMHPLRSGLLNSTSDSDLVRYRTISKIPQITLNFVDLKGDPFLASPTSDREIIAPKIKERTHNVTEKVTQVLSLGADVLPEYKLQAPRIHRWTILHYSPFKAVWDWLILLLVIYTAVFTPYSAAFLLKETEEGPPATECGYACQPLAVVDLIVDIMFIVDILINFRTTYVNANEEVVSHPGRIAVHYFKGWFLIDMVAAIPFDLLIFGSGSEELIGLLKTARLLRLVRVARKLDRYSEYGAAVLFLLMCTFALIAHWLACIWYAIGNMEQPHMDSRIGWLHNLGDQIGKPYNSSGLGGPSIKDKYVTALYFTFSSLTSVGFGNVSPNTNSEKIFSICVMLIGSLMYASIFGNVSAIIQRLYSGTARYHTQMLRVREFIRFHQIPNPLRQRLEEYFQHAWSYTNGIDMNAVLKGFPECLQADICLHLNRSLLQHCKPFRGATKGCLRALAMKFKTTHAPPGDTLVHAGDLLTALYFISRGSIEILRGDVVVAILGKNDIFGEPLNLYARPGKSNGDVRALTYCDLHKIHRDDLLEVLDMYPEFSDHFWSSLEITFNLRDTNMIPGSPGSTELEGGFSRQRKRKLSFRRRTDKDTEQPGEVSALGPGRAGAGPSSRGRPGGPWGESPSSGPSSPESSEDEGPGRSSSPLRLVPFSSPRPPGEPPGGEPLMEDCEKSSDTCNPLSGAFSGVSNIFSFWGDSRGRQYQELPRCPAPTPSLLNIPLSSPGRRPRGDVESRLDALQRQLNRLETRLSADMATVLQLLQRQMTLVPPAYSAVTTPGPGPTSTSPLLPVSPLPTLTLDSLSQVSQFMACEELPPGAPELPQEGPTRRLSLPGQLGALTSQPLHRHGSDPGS
Description: Using human ether-a-go-go related gene (hERG)-transfected HEK293 cells (Cytomyx Limited), an influence on hERG current was examined according to the whole cell patch clamp technique. The hERG-transfected HEK293 cells were passaged using a CO2 incubator (BNA-111, TABAI ESPEC CORP.) under the set conditions of 37° C., 5% CO2, saturated humidity. Culture containers used were Collagen Type I Coated 75 cm^2 flask (4123-010, AGC TECHNO GLASS CO., Ltd.) and Collagen Type I Coated 35 mm culture dish (4000-010, AGC TECHNO GLASS CO., Ltd.). The culture medium used was E-MEM (Eagle Minimum Essential Medium (Earle's Salts, Nikken biomedical laboratory) added with 10% FCS (Fetal calf serum, BioWest, L.L.C.) and 1% MEM Non-Essential Amino Acids Solution (NEAA, Invitrogen Corporation). Geneticin for the selection of hERG gene expressing cells was added thereto to a concentration of 400 μg/mL. As the cells for the measurement, 3×10^4 hERG-transfected HEK293 cells were plated on a 35 mm culture dish 4 to 7 days before measurement of the hERG current. The culture dish produced for the measurement contained the above-mentioned culture medium without geneticin (Invitrogen Corporation).
The highest evaluation concentration of each compound was determined from the highest concentration at which precipitation was not found in the standard extracellular fluid (NaCl: 140 mmol/L, KCl: 2.5 mmol/L, MgCl2:2 mmol/L, CaCl2: 2 mmol/L, HEPES: 10 mmol/L, glucose: 10 mmol/L (adjusted to pH 7.4 with Tris-base)). As the application method, each solution to be applied was ejected from a Y-tube having a tip diameter of about 0.25 mm, which was adjacent (about 2 mm) to the cells, and applied to the cells. The ejection rate was about 0.4 mL/min.
The experiment was performed at room temperature under a phase contrast microscope. The 35 mm culture dish plated with the cells was set on a measurement apparatus, and the standard extracellular fluid was continuously applied to the cells from the Y-tube. A glass electrode for the measurement was filled with an intracellular fluid (Potassium Gluconate: 130 mmol/L, KCl: 20 mmol/L, MgCl2: 1 mmol/L, ATP-Mg: 5 mmol/L, EGTA: 3.5 mmol/L, HEPES: 10 mmol/L (adjusted to pH 7.2 with Tris-base)). A conventional whole cell patch clamp method was applied to the cells, and the maintenance electric potential was set to −80 mV. Under a fixed electric potential, the whole cell current was amplified by an amplifier for patch clamp (AXOPATCH-200B, Axon Instruments, Inc.), and the data was loaded into a computer (IMC-P642400, Intermedical Co., Ltd.) using a data acquisition analysis software (pCLAMP 9.2, Axon Instruments, Inc.).
The measurement of the hERG current was performed in the following two steps. In both cases, the hERG current was initiated by giving a command potential (maintenance electric potential −80 mV, prepulse +20 mV, 1.5 sec, test-pulse −50 mV, 1.5 sec).
Step (1): The above-mentioned command potential was given at 0.1 Hz for 2 min.
Step (2): The above-mentioned command potential was subjected to P/3 subtraction of pCLAMP 9.2 to remove leak current. This was repeated three times and an average thereof was taken as hERG current.
Subsequent to step (1), Step (2) was performed (about 3 min), and the maximum tail current obtained by applying a test-pulse to the hERG current obtained by the method of step (2) was taken as hERG current value. Hereafter, the operations of (1) and (2) were alternately repeated until completion of the experiment and the hERG current value was measured.
Stable hERG current value was recorded three times (about 10 min), and the standard extracellular fluid was instantaneously exchanged with each application fluid. The hERG current value was measured three times (about 10 min) in the same manner during perfusion of the application fluid, and the current value obtained by the 3rd measurement was taken as hERG current value after perfusion of the application fluid. […]

[3] = Table 2, 5 hr after oral 3 mg/kg
[4] = Table 2, 20 hr after oral 3 mg/kg

| Structure (SMILES) | PDHa activity (% of PDHt activity) [1, 3] | PDHa activity (% of PDHt activity) [1, 4] | PDHa activity (% of PDHt activity) (liver PDH activity; [3]) | PDHa activity (% of PDHt activity) (liver PDH activity; [4]) | hERG current Inhibition rate (%) ([2]; 3 μmol/L) | hERG current Inhibition rate (%) ([2]; 30 μmol/L) |
| --- | --- | --- | --- | --- | --- | --- |
| CC(C)(C(N)=O)n1cc(-c2cc(F)cc3c2-c2ccccc2[C@]3(O)C(F)(F)F)cn1 [Compound (D), 2-{4-[(9R)-2-Fluoro-9-hydroxy-9-(trifluoromethyl)-9H-fluoren-4-yl]-1H-pyrazol-1-yl}-2-methylpropanamide] | 43 ± 7 % of PDHt activity | 24 ± 3 % of PDHt activity | 41 ± 15 % of PDHt activity | 20 ± 1 % of PDHt activity | 9.4% | 67.5% |
| CC(C)(O)COc1cc(-c2cnn(CCO)c2)c2c(c1)[C@@](O)(C(F)(F)F)c1ccccc1-2 [Compound (C), (9R)-4-[1-(2-Hydroxyethyl)-1H-pyrazol-4-yl]-2-(2-hydroxy-2-methylpropoxy)-9-(trifluoromethyl)-9H-fluoren-9-ol] | 53 ± 4 % of PDHt activity | 28 ± 7 % of PDHt activity | 44 ± 5 % of PDHt activity | 13 ± 3 % of PDHt activity | 11.5% | 69.0% |
